Test results: PMC8629796, “Inhibition of the hERG potassium channel by phenanthrene: a polycyclic aromatic hydrocarbon pollutant” (Cellular and Molecular Life Sciences: CMLS, 2021)

What was measured:
[1] = target: T1, hERG (hERG1a, Kv11.1) potassium channel (Homo sapiens, UniProt Q12809); test: whole-cell patch clamp, tail current inhibition; type: cell-based
T1 construct: gene KCNH2; WT hERG1a stably expressed in HEK293 cells

[2] = target: T2, hERG (hERG1a, Kv11.1) potassium channel (Homo sapiens, UniProt Q12809, F656T); test: whole-cell patch clamp, tail current block by […]; type: cell-based
T2 construct: gene KCNH2; hERG1a F656T transiently expressed in HEK293 cells

[3] = target: T3, hERG (hERG1a, Kv11.1) potassium channel (Homo sapiens, UniProt Q12809, Y652A); test: whole-cell patch clamp, tail current inhibition; type: cell-based
T3 construct: gene KCNH2; hERG1a Y652A transiently expressed in HEK293 cells

[4] = target: T4, hERG (hERG1a, Kv11.1) potassium channel (Homo sapiens, UniProt Q12809, F656V)
T4 construct: gene KCNH2

zebrafish ERG (zERG) = target: T5, zebrafish ERG (zERG) (Danio rerio, UniProt A0A8M1PIE0); test: whole-cell patch clamp, current inhibition; type: cell-based
T5 construct: gene kcnh6a

T2 sequence (Q12809 whole entry F656T): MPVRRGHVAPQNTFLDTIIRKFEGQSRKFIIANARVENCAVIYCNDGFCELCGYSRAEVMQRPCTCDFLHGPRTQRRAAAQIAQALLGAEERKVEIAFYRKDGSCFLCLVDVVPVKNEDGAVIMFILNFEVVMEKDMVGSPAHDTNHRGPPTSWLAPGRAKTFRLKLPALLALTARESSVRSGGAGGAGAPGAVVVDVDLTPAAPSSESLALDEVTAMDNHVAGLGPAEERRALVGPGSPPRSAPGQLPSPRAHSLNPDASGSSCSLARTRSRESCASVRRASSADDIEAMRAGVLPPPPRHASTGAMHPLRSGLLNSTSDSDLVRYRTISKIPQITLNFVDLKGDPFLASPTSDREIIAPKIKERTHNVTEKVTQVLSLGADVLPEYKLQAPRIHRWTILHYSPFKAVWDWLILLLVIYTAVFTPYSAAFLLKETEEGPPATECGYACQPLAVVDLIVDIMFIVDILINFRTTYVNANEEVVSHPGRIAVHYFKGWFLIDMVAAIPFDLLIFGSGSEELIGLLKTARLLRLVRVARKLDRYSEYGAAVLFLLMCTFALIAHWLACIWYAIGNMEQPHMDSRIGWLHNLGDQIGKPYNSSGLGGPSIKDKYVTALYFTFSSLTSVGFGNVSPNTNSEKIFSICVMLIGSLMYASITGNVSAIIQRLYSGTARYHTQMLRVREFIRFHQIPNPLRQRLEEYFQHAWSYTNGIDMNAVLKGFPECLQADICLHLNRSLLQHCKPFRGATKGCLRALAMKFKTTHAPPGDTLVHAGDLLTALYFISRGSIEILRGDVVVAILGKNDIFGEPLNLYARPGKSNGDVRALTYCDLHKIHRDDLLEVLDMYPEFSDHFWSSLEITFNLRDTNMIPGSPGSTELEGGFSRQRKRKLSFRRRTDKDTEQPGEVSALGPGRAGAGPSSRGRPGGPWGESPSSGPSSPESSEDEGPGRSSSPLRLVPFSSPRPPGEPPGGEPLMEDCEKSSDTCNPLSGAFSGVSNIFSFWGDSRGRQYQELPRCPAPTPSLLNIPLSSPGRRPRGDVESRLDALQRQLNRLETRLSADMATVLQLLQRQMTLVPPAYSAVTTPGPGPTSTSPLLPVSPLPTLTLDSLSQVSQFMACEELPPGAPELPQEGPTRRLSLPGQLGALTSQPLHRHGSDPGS
T4 sequence (Q12809 whole entry F656V): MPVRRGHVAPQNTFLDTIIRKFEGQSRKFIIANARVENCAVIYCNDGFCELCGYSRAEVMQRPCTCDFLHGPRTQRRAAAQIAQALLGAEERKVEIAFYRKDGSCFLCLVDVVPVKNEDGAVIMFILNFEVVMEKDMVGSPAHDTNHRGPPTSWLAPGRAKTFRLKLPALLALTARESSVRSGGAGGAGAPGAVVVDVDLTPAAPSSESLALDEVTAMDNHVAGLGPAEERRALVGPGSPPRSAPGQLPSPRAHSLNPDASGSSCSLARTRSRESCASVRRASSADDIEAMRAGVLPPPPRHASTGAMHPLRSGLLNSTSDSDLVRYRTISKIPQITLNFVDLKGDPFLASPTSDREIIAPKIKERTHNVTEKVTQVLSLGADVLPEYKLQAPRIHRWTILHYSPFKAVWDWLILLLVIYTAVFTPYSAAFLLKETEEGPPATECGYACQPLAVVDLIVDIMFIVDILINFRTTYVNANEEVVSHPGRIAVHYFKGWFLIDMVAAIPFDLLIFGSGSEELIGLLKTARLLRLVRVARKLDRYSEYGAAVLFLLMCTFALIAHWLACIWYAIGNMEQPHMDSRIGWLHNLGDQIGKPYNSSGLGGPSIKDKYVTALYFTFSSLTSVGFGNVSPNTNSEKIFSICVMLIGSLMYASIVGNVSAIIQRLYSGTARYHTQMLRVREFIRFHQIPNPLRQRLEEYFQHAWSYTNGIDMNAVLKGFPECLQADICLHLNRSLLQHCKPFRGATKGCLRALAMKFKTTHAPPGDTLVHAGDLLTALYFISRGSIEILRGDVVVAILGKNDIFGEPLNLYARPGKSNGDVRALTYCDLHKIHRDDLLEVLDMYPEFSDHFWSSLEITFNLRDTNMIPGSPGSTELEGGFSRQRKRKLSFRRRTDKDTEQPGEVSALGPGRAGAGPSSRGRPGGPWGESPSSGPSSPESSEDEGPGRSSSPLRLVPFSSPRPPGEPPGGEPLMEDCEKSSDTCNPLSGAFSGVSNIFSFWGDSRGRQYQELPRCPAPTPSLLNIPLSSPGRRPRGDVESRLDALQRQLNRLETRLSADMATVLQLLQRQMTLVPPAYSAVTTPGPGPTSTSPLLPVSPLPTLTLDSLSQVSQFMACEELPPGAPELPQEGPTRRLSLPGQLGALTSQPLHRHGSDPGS
T1 sequence (Q12809 whole entry): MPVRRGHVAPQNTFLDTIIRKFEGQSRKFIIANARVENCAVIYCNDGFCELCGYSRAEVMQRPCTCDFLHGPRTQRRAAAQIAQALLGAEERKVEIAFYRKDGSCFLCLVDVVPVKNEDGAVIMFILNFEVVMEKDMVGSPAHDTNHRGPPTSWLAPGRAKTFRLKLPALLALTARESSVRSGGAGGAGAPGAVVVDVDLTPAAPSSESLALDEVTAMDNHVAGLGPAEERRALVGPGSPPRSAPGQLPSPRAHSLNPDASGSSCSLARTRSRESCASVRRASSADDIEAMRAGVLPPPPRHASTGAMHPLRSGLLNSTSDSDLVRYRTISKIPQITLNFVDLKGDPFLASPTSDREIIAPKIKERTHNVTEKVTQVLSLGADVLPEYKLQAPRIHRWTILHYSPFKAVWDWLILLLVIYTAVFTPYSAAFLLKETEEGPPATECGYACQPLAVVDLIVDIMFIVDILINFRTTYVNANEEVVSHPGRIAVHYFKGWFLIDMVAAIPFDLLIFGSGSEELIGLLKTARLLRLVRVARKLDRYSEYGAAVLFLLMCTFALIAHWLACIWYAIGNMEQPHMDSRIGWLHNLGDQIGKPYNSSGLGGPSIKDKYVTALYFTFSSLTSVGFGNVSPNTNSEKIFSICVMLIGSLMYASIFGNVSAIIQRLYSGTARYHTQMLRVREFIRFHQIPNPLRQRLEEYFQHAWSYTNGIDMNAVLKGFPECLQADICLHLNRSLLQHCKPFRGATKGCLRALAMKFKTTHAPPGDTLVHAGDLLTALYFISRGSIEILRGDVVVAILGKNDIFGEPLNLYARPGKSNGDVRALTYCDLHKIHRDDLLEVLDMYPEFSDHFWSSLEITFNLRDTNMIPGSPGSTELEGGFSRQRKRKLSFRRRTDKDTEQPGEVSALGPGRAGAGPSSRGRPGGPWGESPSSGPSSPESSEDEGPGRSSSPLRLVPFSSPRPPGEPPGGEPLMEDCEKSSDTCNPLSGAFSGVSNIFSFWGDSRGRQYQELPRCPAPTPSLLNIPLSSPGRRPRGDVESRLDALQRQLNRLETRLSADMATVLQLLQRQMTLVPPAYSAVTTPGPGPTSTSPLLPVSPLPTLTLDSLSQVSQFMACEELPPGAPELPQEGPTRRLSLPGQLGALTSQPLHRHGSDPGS
T3 sequence (Q12809 whole entry Y652A): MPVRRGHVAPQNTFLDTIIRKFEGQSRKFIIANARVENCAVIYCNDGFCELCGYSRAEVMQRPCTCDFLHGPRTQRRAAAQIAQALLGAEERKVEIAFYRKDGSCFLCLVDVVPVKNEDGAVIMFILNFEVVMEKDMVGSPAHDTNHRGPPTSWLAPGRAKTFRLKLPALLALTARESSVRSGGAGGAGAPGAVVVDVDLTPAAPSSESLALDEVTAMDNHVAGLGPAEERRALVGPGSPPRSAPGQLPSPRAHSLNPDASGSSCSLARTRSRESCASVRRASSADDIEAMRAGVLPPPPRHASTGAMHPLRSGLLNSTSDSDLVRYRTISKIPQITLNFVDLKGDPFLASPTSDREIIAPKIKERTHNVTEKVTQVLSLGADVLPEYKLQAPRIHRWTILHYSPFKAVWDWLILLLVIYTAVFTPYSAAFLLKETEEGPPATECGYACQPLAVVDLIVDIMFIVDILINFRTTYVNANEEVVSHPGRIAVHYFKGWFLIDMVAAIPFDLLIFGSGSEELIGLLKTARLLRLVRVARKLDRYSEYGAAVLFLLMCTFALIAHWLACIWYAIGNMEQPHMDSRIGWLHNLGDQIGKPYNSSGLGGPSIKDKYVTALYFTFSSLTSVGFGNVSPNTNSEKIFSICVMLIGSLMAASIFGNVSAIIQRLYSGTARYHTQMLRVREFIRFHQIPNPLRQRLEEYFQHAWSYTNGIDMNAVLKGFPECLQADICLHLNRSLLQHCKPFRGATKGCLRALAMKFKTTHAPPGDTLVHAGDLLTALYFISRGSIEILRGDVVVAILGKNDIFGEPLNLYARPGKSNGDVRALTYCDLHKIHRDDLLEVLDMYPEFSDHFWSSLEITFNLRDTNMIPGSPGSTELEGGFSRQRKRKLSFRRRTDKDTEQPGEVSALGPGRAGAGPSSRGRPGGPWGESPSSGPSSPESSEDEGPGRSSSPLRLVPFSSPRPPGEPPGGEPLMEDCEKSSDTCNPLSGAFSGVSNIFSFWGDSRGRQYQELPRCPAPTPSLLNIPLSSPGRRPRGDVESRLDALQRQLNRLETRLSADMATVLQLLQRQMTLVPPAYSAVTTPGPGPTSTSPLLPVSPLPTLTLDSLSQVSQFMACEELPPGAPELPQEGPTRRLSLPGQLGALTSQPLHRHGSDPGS

- IC50 (zebrafish ERG (zERG)): 8.77 ± 0.93 µM
Compound: c1ccc2c(c1)ccc1ccccc12 [phenanthrene]
- IC50 [1]: 17.6 ± 1.7 µM
- whole-cell patch clamp, tail current block by 30 μM [2]: this effect was not statistically significantly different from block of WT IhERG
- IC50 [3]: 0.46 ± 0.01 µM
- whole-cell patch clamp, tail current block by 30 μM [4]: also did not impair the inhibitory effect of phenanthrene, showing a trend towards increased block
